{"source": "patent US20030095982A1", "about": "“Fraction of Cordyceps sinensis and method of isolation thereof” (priority 2001, published 2003)", "key": {"[1]": {"system": "ovalbumin (OA) induced bronchial hyperresponsiveness", "experiment": "Bronchoalveolar lavage cell counts, OA model in BNR", "type": "in vivo, brown Norway rats (BNR)", "method": "After completion of the pulmonary function tests, BAL was performed using 10 mL normal saline twice (total 20 mL) for BNR or guinea pig. The BAL fluid was collected into plastic flasks containig 1,500 units of heparin and then strained through 1 layer of surgical gauze and centrifuged at 500 g for 5 min. The cell pellet was washed 3 times with sterile saline solution and resuspended in RPMI-1640. A small portion was taken for evaluation of cell number and viability, as assessed by trypan blue exclusion.\n(§1) Differential counts were obtained using a cytocentrifuge preparation (Cytospin; Shandon Southern Instruments, Sewickley, Pa.) stained with Liu's stain (modified May-Giemsa stain)."}, "[2]": {"system": "ovalbumin (OA) induced bronchial hyperresponsiveness", "experiment": "Bronchoalveolar lavage cell counts, OA model in BALBc mice", "type": "in vivo", "method": "After completion of the pulmonary function tests, BAL was performed using 1 mL normal saline twice (total 2 mL). The BAL fluid was collected into plastic flasks containing 1,500 units of heparin and then strained through 1 layer of surgical gauze and centrifuged at 500 g for 5 min. The cell pellet was washed 3 times with sterile saline solution and resuspended in RPMI-1640. A small portion was taken for evaluation of cell number and viability, as assessed by trypan blue exclusion.\nas §1"}, "[3]": {"system": "ovalbumin (OA) induced bronchial hyperresponsiveness", "experiment": "Pulmonary function test, OA sensitized and challenged BALBc mice", "type": "in vivo", "method": "In the nonanesthetized condition, 24 hours after airway challenge by 3 mL 1% OA aerosol, pulmonary function testing (PET) was measured by WBP at baseline and after methacholine (Mch) inhalation challenge. Four hours after PET in a nonanesthetized condition, all animals were anesthetized with sodium pentobarbitone (50 mg/kg intraperitoneally). Jugular vein cannulation (PE-10 polyethylene tube filled with heaprin, 1000 iu/mL in normal saline) and tracheostomy were performed. The animals were put in a body box (anesthetized small animal body box, Buxco, USA) in a supine position. Gallamine triethiodide (4 mg/kg) was injected intravenously to induce paralysis and inhibit spontaneous breathing. A small animal ventilator set at a tidal volume 6 mL/kg and a respiratory rate of 120 times/minute was used to ventilate the animals by room air. All animals were stable without spontaneous breathing 5 minutes after gallamine was given. Pulmonary function tests, including flow volume loop, peak airway opening pressure (PaO), and gas flow to calculate total dynamic lung compliance, were examined at baseline. Thereafter, 25, 50, 75 and 100 μg/kg of acetylcholine were given intravenously at 30 minute intervals. Pulmonary function test were done 5 seconds after each dose of acetylcholine. Before each dose of acetylcholine the flow volume loop returned to baseline.\nThe PaO was measured by a Gould pressure transducer at the tracheostomy. PaO was defined as opening airway pressure during tidal breathing when a small animal ventilator was used (tidal volume 6 mL/kg, respiratory rate 120 times/minute). Respiratory flow was measured by a DP-45-14 differential pressure transducer.\nFor the maximal forced expiratory maneuver (MFEM), the lungs were inflated to total lung capacity (TLC, lung volume at PaO =35 cm H2O) 3 times; the inflation was regulated by a solenoid valve. At peak volume during the third inflation, the inflation valve was shut off and the other solenoid valve was used immediately for deflation. The deflation valve was connected to a 20 liter container with a pressure of −40 cm H2O (subatmospheric). The negative pressure produced maximal expiratory flow (Vmax). The changes in flow, volume and PaO were recorded by a 7P1, 7P10 preamplifier (Grass instrument Company, USA) from the body box and flow volume was stored in an oscilloscope (Hitachi Den Shi America Ltd, New York, USA). The parameters of the flow volume loop (FV loop), including peak flow (the maximal flow rate of the FV loop), MFEF75% (the flow rate at 75% TLC), MFEF50% (the flow rate at 50% TLC) and MFEF25% (the flow rate at 25% TLC) were recorded.\nPD20MFEF50%Ach is the dose of acetylcholine required to produce a decrease in MFEF50% of 20% from baseline. PD20MFEF25%Ach is the dose required to produce a decrease in MFEF25% of 20% from baseline. PD50PaOAch is the dose required to produce an increase in PaO of 50% from baseline. PD50CdynAch is the dose required to produce a decrease in Cdyn of 50% from baseline. PD50RawAch is the dose required to produce an increase in Raw of 50% from baseline after acetylcholine was given.\nTLC and residual volume (RV) were defined as the gas volume in the lungs at airway pressures of +30 cm H2O (TLC) and −10 cm H2O (RV) respectively. The lungs were deflated to RV by connecting one port of the respiratory valve to a 4-liter reservoir at −10 cm H2O; the valve was then turned, and the lungs were inflated from a syringe to TLC. The volume necessary to inflate the lungs from −10 to 30 cm H2O was read from the syringe and was recorded as the vital capacity (VC). A specific measurement sequence was used throughout the study. VC was determined three times and then TLC was measured three times each. The average valve of the three measurements was reported.\nLung volumes (such as TLC and FRC) were also measured using the gas (Neon) dilution principle. […]"}, "[4]": {"experiment": "Ames test", "type": "cell-based", "method": "B: Compound F8: This refers to F8 (for spectroscopic and structural data, see FIG. 2a, 2b, and 3). The molecular formula of compound F8 is C28H46O3. To confirm the potential applicability of the above fractions and to check for obvious toxicity or mutagenicity, Ames test and acute toxicity test were conducted on white mice (ICR-mice) using the F4 fraction or compound F8."}, "[5]": {"details": "BAL fluid, 4 mg/Kg intraperitoneally 30 minutes before OA inhalation provocation"}, "[6]": {"details": "BAL fluid, BALBc mice, 4 mg/Kg intraperitoneally 30 minutes before OA inhalation provocation"}, "[7]": {"details": "BALBc mice, baseline, 4 mg/Kg intraperitoneally 30 minutes before OA inhalation provocation, mean±SD"}}, "data": [{"smiles": "CC(C)[C@@H](C)C=C[C@@H](C)[C@H]1CC[C@H]2C3=C[C@@H](O)[C@@]4(O)C[C@@H](O)CC[C@]4(C)[C@H]3CC[C@]12C", "note": "[F8, (24R)-ergosta-7,22-diene-3β, 5α, 6β,-triol]", "values": [{"measurement": "Eosinophil Cell count", "setting": "[1]; [5]", "result": "4.26 ± 0.5 (×10^4)/mL"}, {"measurement": "Eosinophil Percentage of total cell count (%)", "setting": "[1]; [5]", "result": "28.8 ± 4.5", "unit": "%"}, {"measurement": "Lymphocyte Cell count", "setting": "[1]; [5]", "result": "3.37 ± 0.51 (×10^4)/mL"}, {"measurement": "Lymphocyte Percentage of total cell count (%)", "setting": "[1]; [5]", "result": "22.8 ± 4.5", "unit": "%"}, {"measurement": "Macrophage Cell count", "setting": "[1]; [5]", "result": "6.85 ± 0.64 (×10^4)/mL"}, {"measurement": "Macrophage Percentage of total cell count (%)", "setting": "[1]; [5]", "result": "46.3 ± 5.5", "unit": "%"}, {"measurement": "Neutrophil Cell count", "setting": "[1]; [5]", "result": "0.31 ± 0.4 (×10^4)/mL"}, {"measurement": "Neutrophil Percentage of total cell count (%)", "setting": "[1]; [5]", "result": "2.1 ± 0.5", "unit": "%"}, {"measurement": "Total cell count", "setting": "[1]; [5]", "result": "14.8 ± 3.2 (×10^4)/mL"}, {"measurement": "BAL total cell counts, eosinophils and lymphocytes versus group II", "setting": "[1]; treatment study (administered after OA inhalation provocation)", "result": "Group II had higher total cell counts than the other 2 groups"}, {"measurement": "Eosinophil Cell count", "setting": "[2]; [6]", "result": "0.12 ± 0.04 (×10^4)/mL"}, {"measurement": "Eosinophil Percentage of total cell count (%)", "setting": "[2]; [6]", "result": "6.3 ± 1.6", "unit": "%"}, {"measurement": "Lymphocyte Cell count", "setting": "[2]; [6]", "result": "0.10 ± 0.04 (×10^4)/mL"}, {"measurement": "Lymphocyte Percentage of total cell count (%)", "setting": "[2]; [6]", "result": "5.2 ± 1.6", "unit": "%"}, {"measurement": "Macrophage Cell count", "setting": "[2]; [6]", "result": "1.82 ± 0.21 (×10^4)/mL"}, {"measurement": "Macrophage Percentage of total cell count (%)", "setting": "[2]; [6]", "result": "84.2 ± 3.4", "unit": "%"}, {"measurement": "Neutrophil Cell count", "setting": "[2]; [6]", "result": "0.13 ± 0.03 (×10^4)/mL"}, {"measurement": "Neutrophil Percentage of total cell count (%)", "setting": "[2]; [6]", "result": "5.1 ± 1.0", "unit": "%"}, {"measurement": "Total cell count", "setting": "[2]; [6]", "result": "2.23 ± 0.64 (×10^4)/mL"}, {"measurement": "BAL total cell counts, eosinophils and lymphocytes versus group II", "setting": "[2]; mice, treatment study (administered after OA challenge)", "result": "Group II had higher total cell counts than other 2 groups"}, {"measurement": "percentage of baseline MFEF 50% TLC, Ach dose response", "setting": "[3]; BALB/c mice, pretreated before OA inhalation provocation (group I) vs OA-treated (group II), Ach doses higher than 25 μg/kg", "result": "group II was significantly lower then group I"}, {"measurement": "Cdyn (total dynamic lung compliance)", "setting": "[3]; [7]", "result": "0.42 ± 0.04", "unit": "mL/cmH2O"}, {"measurement": "FEV 0.1", "setting": "[3]; [7]", "result": "1.26 ± 0.17", "unit": "mL"}, {"measurement": "MFEF 25%", "setting": "[3]; [7]", "result": "6.06 ± 1.59", "unit": "mL/s"}, {"measurement": "MFEF 50%", "setting": "[3]; [7]", "result": "14.58 ± 1.31", "unit": "mL/s"}, {"measurement": "MFEF 75%", "setting": "[3]; [7]", "result": "19.94 ± 2.53", "unit": "mL/s"}, {"measurement": "PaO (airway opening pressure at tidal breathing)", "setting": "[3]; [7]", "result": "3.8 ± 0.5", "unit": "cmH2O"}, {"measurement": "Peak flow", "setting": "[3]; [7]", "result": "22.64 ± 2.07", "unit": "mL/s"}, {"measurement": "TLC", "setting": "[3]; [7]", "result": "1.68 ± 0.25", "unit": "mL"}, {"measurement": "Vital capacity", "setting": "[3]; [7]", "result": "1.29 ± 0.11", "unit": "mL"}, {"measurement": "baseline flow volume loop parameters (MFEF 50%TLC, MFEF 25%TLC, Cdyn) versus group II", "setting": "[3]; mice, treatment study (administered after OA challenge), p<0.05", "result": "lower in group II when compared with group I and III"}, {"measurement": "mutagenicity (Ames test)", "setting": "[4]", "result": "no obvious evidence of toxicity or mutagenic properties"}]}]}
